According to patent US8703428B2, “Single-cell label-free assay” (Corning Incorporated, priority 2007, dated 2014):

Target: β2-adrenergic receptor (β2AR) (Homo sapiens, UniProt P07550)
Description: For kinetic assays, the cells were washed with HBSS (Hanks Balanced Salt Solution with 20 mM HEPES) buffer.

Sequence of β2-adrenergic receptor (β2AR) (P07550 whole entry): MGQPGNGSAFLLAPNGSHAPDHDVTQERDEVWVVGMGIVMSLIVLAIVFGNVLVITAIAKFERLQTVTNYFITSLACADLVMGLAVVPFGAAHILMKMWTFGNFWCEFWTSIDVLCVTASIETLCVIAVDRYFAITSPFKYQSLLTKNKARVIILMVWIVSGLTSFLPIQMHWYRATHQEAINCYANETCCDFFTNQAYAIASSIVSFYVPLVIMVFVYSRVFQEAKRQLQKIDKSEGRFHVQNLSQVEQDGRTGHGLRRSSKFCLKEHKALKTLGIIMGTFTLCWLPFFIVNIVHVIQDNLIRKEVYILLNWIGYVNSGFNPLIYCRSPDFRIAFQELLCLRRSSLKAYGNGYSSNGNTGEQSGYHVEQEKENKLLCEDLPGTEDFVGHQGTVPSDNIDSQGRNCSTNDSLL

`CNC[C@H](O)c1ccc(O)c(O)c1` [epinephrine] was tested, and the “epinephrine-induced DMR signal (phases)” value (A431 cells) was “a small N-DMR, followed by a significant P-DMR event”, the “epinephrine-induced DMR signal, dose dependence” value (A431 cells) was “dose-dependent DMR signal” and the “distribution of DMR signals (P-DMR amplitude, transition time)” value (quiescent A431 cells, about 100% confluency, 2 nM epinephrine, pixel level) was “relatively tight distribution and are relatively homogenous”.
